Measured values published in US5795977A, “Water soluble adenosine kinase inhibitors” (Metabasis Therapeutics, Inc., priority 1996, dated 1998).

Key:
[1] = test system: Rats (carrageenan paw); assay: Anti-inflammatory activity, carrageenan paw swelling; assay type: in vivo; conditions: rat, 10 mg/kg, swelling after 3 hours
Experimental: Carrageenan (Type λ) was suspended in sterile PBS at 1% (w/v), autoclaved for 30 minutes, and stored at room temperature. Rats were pretreated with vehicle or AK inhibitor (10 mg/kg) by oral gavage or i.p. administration and the volume of the left hind paw was measured using a water displacement plethysmometer (Stoelting Co., Wood Dale, Ill.). One hour after oral treatment or 30 minutes after i.p. treatment, the rats were briefly anesthetized, and 0.1 ml of the carrageenan solution was injected subcutaneously into the planar surface of the left hind paw. The ensuing paw swelling was measured by plethysmometry after 3 hours. The paw volume in millileters was […]. Data are presented in Table 2 as the percent inhibition of paw swelling in AK inhibitor treated animals, compared to vehicle treated control animals.

[2] = test system: Rats (formalin paw); assay: Formalin paw assay; assay type: in vivo; conditions: rat, oral 90 min prior, 10.3-30 min post-formalin, vs vehicle
Experimental: In this assay, injection of formalin, an irritant, into the hindpaw of rats typically evokes a biphasic response of pain-related behaviors. Phase 1 of the response which is brief, lasting approximately 0-5 min post-injection,is followed by a more prolonged phase 2, lasting approximately 10-80 min post-injection. Phase 1 behavior is thought to be a direct effect of the irritant on nociceptors at the injection site while phase 2 behavior is thought to include a hyperalgesic component mediated by sensitization of neuronal elements within the spinal cord. Studies from other laboratories have found the first portion of Phase 2 (sometimes referred to as Phase 2a) to be most responsive to pharmacological manipulation.
Rats (male, Simonsen) weighing between 100-200 g, are used in the present experiments. For screening purposes drugs are administered orally 90 min prior to initiation of formalin test. At designated intervals the animals in groups of 4 are placed individually in a small animal restrainer with the right hindpaw accessible through a hole in the bottom of the restrainer. The formalin paw assay is initiated by the injection using a 30G needle of 50 ul of a 5% formalin solution in saline into the right plantar surface of each hindpaw. […]
Scores are continuously recorded directly onto an Excel spreadsheet.

[3] = test system: male SA rats (maximal electroshock seizures); assay: Anticonvulsant activity, maximal electroshock seizures (MES); assay type: in vivo; conditions: rat, po, fasted; >> = no activity at the stated dose
Experimental: The anticonvulsant activity of the tested compounds was evaluated in male SA rats (100-150g, Simonsen) using the maximal electroshock (MES) model described in Swinyard et al., Antiepileptic Drugs, 3d Ed. at 85-102 (Levy, et al., eds.), NY: Raven Press (1989). The rats were maintained on a 12/12 light/dark cycle in temperature controlled facilities with free access to food and water. For p.o. administration, the animals are fasted overnight, prior to the experiment. One to two hours prior to seizure testing, the animals were injected interperitoneally (ip) or orally (per os, po) with one of various doses of test compound dissolved in DMSO or PEG 400.
This endpoint was expressed as the percentage of animals in which the response was inhibited.

[4] = target: partially purified pig heart adenosine kinase or recombinant human adenosine kinase; assay: AK inhibition; assay type: biochemical; conditions: 0.5 μM [U-14C] adenosine, pH 7.0, 37° C., 20 minutes
Experimental: Adenosine kinase activity was measured essentially as described by Yamada et al. Biochim. Biophys. Acta 660, 36-43 (1988) with a few minor modifications. Assay mixtures contained 50 mM TRIS-maleate buffer, pH 7.0, 0.1% BSA, 1 mM ATP 1 mM MgCl2, 0.5 μM [U-^14 C] adenosine (400-600 mCi/mmol) and varying duplicate concentrations of inhibitor. […] The amount of ^14 C-AMP was quantified by scintillation counting.

[5] = Water solubility; assay type: physicochemical; conditions: suitable pH for i.v. administration (e.g. pH 4 to 10)
Experimental: The sample was sonicated for a period of up to 20 minutes. If a solution was not obtained, further solvent was added and the process was repeated until a clear solution was obtained, and the results were recorded. Solutions used were 50 mM potassium biphthalate (pH 4); 100 mM glycine (pH 9); 25 mM sodium carbonate and 25 mM sodium bicarbonate (pH 10); or deionized water (DI).

| SMILES | Carrageenan Paw (% inhibition) ip ([1]; ip) [%] | Carrageenan Paw (% inhibition) po ([1]; oral gavage) [%] | Phase 2 composite score, percent inhibition [2] [%] | ED50 [3] [mg/kg] | IC50 [4] [nM] | water solubility [5] |
| --- | --- | --- | --- | --- | --- | --- |
| C[C@H]1O[C@@H](n2cc(-c3ccccc3)c3c(Nc4ccc(CCN5CCOCC5)cc4)ncnc32)[C@H](O)[C@@H]1O [Compound 3, 4-N-[4-(2-(4-morpholino)ethyl)phenyl]amino-5-phenyl-7-(5-deoxy-β-D-ribofuranosyl)pyrrolo[2,3-d]pyrimidine] | 19.5 | 9.8 | 31 | > 10 | 2 |  |
| C[C@H]1O[C@@H](n2cc(-c3ccccc3)c3c(Nc4ccccc4)ncnc32)[C@H](O)[C@@H]1O [5-phenyl-4-N-phenylamino-7-(5-deoxy-1-β-D-ribofuranosyl)pyrrolo[2,3-d]pyrimidine] |  |  |  |  |  | less than 20 μg/ml |
